How the values were obtained:
UCB derived CD133+ cells = test: Ex vivo expansion of umbilical cord blood CD133+ cells (flow cytometry, counting beads); type: cell-based, human; details: for fold expansion of total nucleated cells (TNC) compared to cells grown in basal media / fold expansion of HSC compared to cells grown in basal media / fold expansion of HSC (Lin−, CD38−, CD34+, CD45RA−, CD133+, CD90+, CD49f+) above basal media containing cytokines: UCB cells; for fold expansion of total nucleated cells (TNC) compared to cells grown in basal media: 5 days culture, vs basal media with cytokines, WR1065 added 16-20 h before harvest; for fold expansion of HSC compared to cells grown in basal media / fold expansion of HSC (Lin−, CD38−, CD34+, CD45RA−, CD133+, CD90+, CD49f+) above basal media containing cytokines: 5 days; for fold expansion of HSC compared to cells grown in basal media: result in words, FIG. 7-12; for fold expansion of HSC (Lin−, CD38−, CD34+, CD45RA−, CD133+, CD90+, CD49f+) above basal media containing cytokines: scriptaid 1 μM, WR1065 100 μM, FIG. 3
Excerpt: Human UCB units were collected with written informed pre-consent and ethical approval from Oxford and Berkshire National Research Ethical Committees and studies conducted with approval of the NHSBT research committee. UCB mononuclear cells (MNC) were isolated by density gradient centrifugation on lymphocyte separation medium 1077 (PAA Laboratories, Pasching, Austria; density<1.077 g/ml). CD133+ cells were isolated from the MNC with immunomagnetic beads (Miltenyi Biotec, Germany). After isolation, the cells were cryopreserved in 10% DMSO in FCS (fetal calf serum) and stored at −150° C. in aliquots of 1×10^5 cells/vial. Cells were analysed for the purity of the isolation with flow cytometry on a BD LSR II (BD Biosciences, CA) using CD34-APC, CD133-PE and the appropriate isotype controls (all Miltenyi Biotec). Bone marrow derived CD133+ cells were obtained commercially from Lonza and peripheral blood CD133+ cells were isolated using immunomagnetic beads as above from total peripheral blood mononuclear cells obtained commercially from Lonza Biologies.
Vials from 2 or 3 donors were thawed and pooled in StemSpan ACF media (Stem Cell Technologies) containing 100 ng/mL SCF, 100 ng/mL FLT3LG and 20 ng/mL TPO (all from Miltenyi Biotec). After counting, cells were plated in 96 well round bottom suspension plates at 20,000 cells/well in the above media. Cells were allowed to recover overnight in these conditions in a 37° C. humidified incubator with 5% CO2.
The next day cells were harvested from the plates counted, and seeded into 24 well Nanex plates (Compass Biomedical) or standard tissue culture treated plates at 2500 cells/well in 1 mL basal media (StemSpan ACF with 100 ng/mL SCF, 100 ng/mL FLT3LG and 20 ng/mL TPO) containing an HDAC inhibitor (for most experiments scriptaid was used at a concentration of 1 μM). An aliquot of cells was used for CFU analysis and another for flow cytometry analysis.
After 3 days in culture the media was either replaced or supplemented with fresh media with the cytokines (SCF, TPO and FLT3LG) and the HDAC inhibitors (scriptaid 1 μM). Sixteen to twenty hours prior to harvest WR1065 was added at a concentration of 100 μM. After total of 5 days in expansion, cells are harvested, counted and analysed by flow cytometry.
Cells were harvested, washed and stained in 3% FBS in PBS using a panel of pre-conjugated antibodies. Cells were incubated with antibodies on ice for 30 min, then washed twice in 3% FBS in PBS and resuspended in 250 uL of above buffer before being analysed using a BD Canto II flow cytometer. [Antibody panel was as follows: 5 Lin custom cocktail (CD235a, CD4, CD10, CD11b and CD19) APC-Vio770, CD38-PE-Vio770, CD34-PerCP-Vio700, CD133-PE, CD45RA-VioBlue, CD49f-FITC, CD90-APC (all from Miltenyi Biotec).]
Cell number was measured using flow cytometry with the aid of counting beads (CountBright beads Life Technologies).

[1] = test system: bone marrow derived CD34+ cells; details: pre-treatment of bone marrow derived CD34+ cells, in vitro; background; cited from earlier work
irradiated NSG mice = test: Repopulation capacity of expanded cord blood cells in immuno-compromised NSG mice (secondary recipients); details: secondary recipient mice, bled at week 8; mice received cord blood cells expanded ex vivo with the substance; FIG. 15
Protocol: The effect of different ex vivo expansion protocols on the ability of the cells to repopulate bone marrow in vivo was investigated. Cells were obtained from cord blood and four cell preparations were produced—1. Unexpanded cells, 2. Cells expanded in the presence of vehicle, 3. Cells expanded in the presence of scriptaid (expanded+SS—FIG. 15), 4. Cells expanded in the presence of scriptaid and WR1065 (expanded+SW—FIG. 15). These cell preparations were then injected into irradiated adult (<8 weeks) male NSG (NOD.Cg-Prkdc^scid II2rcf^Im1Wjl/SzJ) mice. Flow cytometry analysis was performed on blood samples taken at week 15 (CD45^hu & CD45^mu only) to identify animals with evidence of clear engraftment (human CD45+ cells in the blood at week 12, and week 15 human CD45+ count above 1%). Ten of the animals with human CD45+ count above 1%, were used as donors for 10 secondary recipients in one to one manner. At week 20 after cell administration the primary animals were sacrificed. Bone marrow samples were harvested from femurs and tibias and the cells were washed before being counted. 50% of the recovered cells were injected into secondary irradiated animals. In this manner the long term engraftment capabilities of the expanded cells could be determined. The secondary animals were bled at week 8 and whole blood samples analysed by FACs for evidence of engraftment. […]

[2] = UCB cells from three separate donors and a pooled sample, FIG. 13

Compound | fold expansion of total nucleated cells (TNC) compared to cells grown in basal media (UCB derived CD133+ cells) | fold expansion of HSC compared to cells grown in basal media (UCB derived CD133+ cells) | fold expansion of HSC (Lin−, CD38−, CD34+, CD45RA−, CD133+, CD90+, CD49f+) above basal media containing cytokines (UCB derived CD133+ cells) | other results
Cc1cc(C)cc(C(=O)NOCCCCCC(=O)NO)c1 [LMK235] | slightly lower | significantly increased | – | –
CN1CCc2c(c3ccccc3n2Cc2ccc(C(=O)NO)cc2)C1 [Tubastatin A] | similar | significantly increased | – | –
Nc1cc(F)ccc1NC(=O)/C=C/c1cnn(C/C=C/c2ccccc2)c1 [RGFP966] | increase | similar | – | –
NCCCNCCS [WR1065] | – | – | around 3 fold | enhancement of formation of CFU-GEMM and BFU-E colonies [1]: ≤ 38 fold
Cn1cc(CNCC2CCN(c3ncc(C(=O)NO)cn3)CC2)c2ccccc21 [quisinostat] | slightly lower | significantly increased | – | –
O=C(CCCCCN1C(=O)c2cccc3cccc(c23)C1=O)NO [scriptaid] | slightly reduced | – | approximately 10 fold | fold expansion of HSC compared to cells cultured in basal media on different culture surfaces (UCB derived CD133+ cells; Nanex scaffolds, TC treated Corning 24 well plates, suspension Greiner Bio 24 well plates, effect similar across surfaces, FIG. 14): significantly increased; fold expansion of HSC compared to cells cultured on basal media, average (UCB derived CD133+ cells; [2]): 30 fold; fold expansion of HSC compared to cells cultured on basal media, range (UCB derived CD133+ cells; [2]): 10-55 fold; proportion of CD133+/CD34+ cells compared to cells grown on cytokines alone (UCB derived CD133+ cells; after 5 days in culture): increase; average frequency of human CD45+ cells in whole blood, percentage of viable singlets (irradiated NSG mice): 0.04%

— patent publication US20210379112A1, “STEM CELL THERAPY” (PLASTICELL LIMITED, priority 2018, published 2021)
